Patent US20110076693A1, “METHOD FOR DETECTION AND QUANTIFICATION OF PLK1 EXPRESSION AND ACTIVITY” (The U.S.A. as Represented by the Secretary , Dept.of Health …, priority 2008, published 2011)

Tests used:
PBD of Plk1 = molecular target: T1, PBD of Plk1 (Homo sapiens, UniProt P53350); assay: Binding of Plk1-phosphorylated 32P-PBIPtide-A6 to bead-bound GST-PBD; conditions: GST-PBD vs GST-PBD (H538A K540M), TBSN buffer, 1 hour at 4° C.
T1 construct: made in house

Plk1 [1] = assay: Direct Plk1 kinase assay with total HeLa lysates and [γ-32P]ATP using GST-PBIPtides as substrate; format: biochemical, human; conditions: shPlk1 HeLa lysates, compared with PBIPtide4
Experimental: FIGS. 1A-1B are digital images of Western blots, a schematic representation of a kinase assay and a set of bar graphs showing that a peptide that contains the T78 motif of PBIP1 (a PBIPtide) can be used to quantitate the kinase activity of Plk1 in vitro. […] FIG. 1A Left, mitotic HeLa lysates were incubated with either bead-immobilized control glutathione S-transferase (GST) or GST-PBIPtide4 in TBSN buffer containing phosphatase inhibitors. Beads were precipitated and washed and then subjected to in vitro kinase assays in the presence of [γ-^32P]-ATP. Samples were separated by sodium dodecyl sulfate polyacrylamide gel electrophoresis (SDS/PAGE), transferred to polyvinylidene fluoride (PVDF), and then exposed (Autorad). The membrane was immunoblotted with the indicated antibodies and then stained with Coomassie (CBB). Note that the anti-p-T78 signal (α-p-T78 panel) is relatively weak because the incubation was carried out in TBSN at 4° C. FIG. 1A Right is schematic diagram illustrating the experimental procedures described in FIG. 1A Left. The ellipsoids depict bead-associated GST-PBIPtide containing the T78 motif. […] The GST-PBIPtide bands were excised, and incorporated 32P was quantified. […]
It was then determined whether the Plk1 activity present in total cellular lysates could be directly measured by incubating the lysates with GST-PBIPtide. […]

Plk1 [2] = assay: PBIPtide-based Plk1 ELISA with shLuc/shPlk1 HeLa lysates; conditions: compared with PBIPtide4
Experimental: The ELISA wells were coated with soluble GST-PBIPtide containing the T78 motif and then reacted with total cellular lysates. The Plk1 activity in the total lysates generates the p-T78 epitope to which Plk1 itself binds. After reaction, Plk1 activity is quantified by incubating the ELISA wells with either anti-p-T78 antibody (to detect the p-T78 epitope generated) or anti-Plk1 antibody (to detect Plk1 bound to the p-T78 epitope), followed by HRP-conjugated secondary antibody (the grey antibody with a black dot). The asterisks indicate 3.3′, 5.5′-tetramethylbenzidine (TMB) substrate and its reaction product, generated by HRP. […] HeLa cells were silenced for control luciferase (shLuc) or Plk1 (shPlk1) and then treated with nocodazole for 16 hours to arrest the cells in prometaphase (a condition that maximizes Plk1 activity). […] Buffer indicates no-lysate control. The same lysates were subjected to immunoblotting analysis to determine the level of Plk1 in the lysates. […] GST-PBIPtide-A6-coated ELISA wells were incubated with the indicated amount of recombinant Plk1 purified from Sf9 cells. The level of the p-T78 epitope generated and the amount of Plk1 bound to the p-T78 GST-PBIPtide-A6 were quantified by using anti-p-T78 and anti-Plk1 antibodies, respectively. […] Total lysates were prepared from these cells and applied to the GST-PBIPtide-A6-coated wells. Buffer indicates no-lysate control. […]

T1 sequence (P53350 326-603 limits assumed): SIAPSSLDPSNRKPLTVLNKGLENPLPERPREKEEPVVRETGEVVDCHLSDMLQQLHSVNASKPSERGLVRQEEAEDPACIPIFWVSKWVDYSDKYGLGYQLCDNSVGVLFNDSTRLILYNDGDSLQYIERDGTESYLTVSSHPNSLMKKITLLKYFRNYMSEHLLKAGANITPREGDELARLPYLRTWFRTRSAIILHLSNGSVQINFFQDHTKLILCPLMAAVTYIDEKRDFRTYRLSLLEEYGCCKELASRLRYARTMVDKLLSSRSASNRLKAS

**Q.** Which results are given for “GST-PBIPtide-A6: N-terminal GST fusion of SEQ ID NO: 8; 6 repeats of the PBIPtide (Y68F T70A Y81F) triple mutant joined by GGPGG linkers”?
**A.** PBD binding after Plk1-dependent phosphorylation of the T78 motif (PBD of Plk1): sufficient for the PBD binding; Level of 32P incorporation after Plk1 depletion (Plk1 [1]): mildly, but reproducibly, lower level; Sensitivity to Plk1 activity (Plk1 [2]): mildly, but reproducibly, increased sensitivity
